Experimental data taken from patent publication US20050288347A1, “Certain triazole-based compounds, compositions, and uses thereof” (priority 2004, published 2005).
Entries after “also recorded” stand apart in the source; their conditions may differ.

Target: protein kinase
Experiment: HTS ATP-utilizing enzyme assay, off-chip mobility-shift format (Caliper HTS 250)
Assay type: biochemical, human
Conditions: kinase(s) for which the compound exhibits protein kinase inhibitory activity; test compound 10 μM; active = greater than three-sigma from the mean activity of inactive compounds
Outline: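 Single-point screen at 10 μM compound in HEPES pH 7.5 buffer with Triton X-100 and BSA, 2.5 h at 20–22 °C. Substrate-to-phosphopeptide ratio measured by off-chip microfluidic mobility shift; EDTA wells as 100% and DMSO wells as 0% control, hits called at three-sigma limits.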

Kinase	Compound
CHEK2 and AURORA-A and PKA	O=C(CSc1nnc(-c2ccncc2)[nH]1)c1c[nH]c2ccccc12 [1-(1H-indol-3-yl)-2-(5-(pyridin-4-yl)-4H-1,2,4-triazol-3-ylthio)ethanone]
FYN and PDGFRR-α and FLT-3	O=C(CSc1nnc(-c2ccco2)[nH]1)c1ccc(O)c(O)c1 [1-(3,4-dihydroxyphenyl)-2-(5-(furan-2-yl)-4H-1,2,4-triazol-3-ylthio)ethanone]
GSK-3-α; also recorded: GSK-3-β	Nc1nncn1C(=O)Cc1ccc(Cl)cc1 [1-(3-amino-4H-1,2,4-triazol-4-yl)-2-(4-chlorophenyl)ethanone]
INSR	COc1ccc(-c2nnc(SCC(C)=O)n2-c2ccccc2)cc1 [1-(5-(4-methoxyphenyl)-4-phenyl-4H-1,2,4-triazol-3-ylthio)propan-2-one]
AURORA-A	O=C(CSc1nnc(-c2cccnc2)[nH]1)c1ccccc1 [1-phenyl-2-(5-(pyridin-3-yl)-4H-1,2,4-triazol-3-ylthio)ethanone]
FLT-3; also recorded: AURORA-A	Cc1cccc(-c2nnc(SCC(=O)c3ccccc3)[nH]2)c1 [1-phenyl-2-(5-m-tolyl-4H-1,2,4-triazol-3-ylthio)ethanone]
DAPK1	Cc1ccc(-c2nnc(SCC(=O)O)n2-c2ccc(C)cc2)cc1 [2-(4,5-dip-tolyl-4H-1,2,4-triazol-3-ylthio)acetic acid]
DAPK1	Cc1ccc(-c2nnc(SC(C)C(=O)O)n2-c2ccc(C)cc2)cc1 (stereo not shown) [2-(4,5-dip-tolyl-4H-1,2,4-triazol-3-ylthio)propanoic acid]
CHEK2	COc1ccccc1-n1c(SCC(=O)O)nnc1-c1ccccc1C [2-(4-(2-methoxyphenyl)-5-o-tolyl-4H-1,2,4-triazol-3-ylthio)acetic acid]
AURORA-A	O=C(O)CSc1nnc(-c2cccnc2)n1-c1ccc(F)cc1 [2-(4-(4-fluorophenyl)-5-(pyridin-3-yl)-4H-1,2,4-triazol-3-ylthio)acetic acid]
AURORA-A	COc1ccc(-n2c(SC(C)C(=O)O)nnc2-c2ccccc2)cc1 (stereo not shown) [2-(4-(4-methoxyphenyl)-5-phenyl-4H-1,2,4-triazol-3-ylthio)propanoic acid]
GSK3-α	O=C(CSc1nncn1-c1ccccn1)Nc1nccs1 [2-(4-(pyridin-2-yl)-4H-1,2,4-triazol-3-ylthio)-N-(thiazol-2-yl)acetamide]
GSK3-β	C=CCn1c(SCC(=O)O)nnc1-c1ccc([N+](=O)[O-])cc1 [2-(4-allyl-5-(4-nitrophenyl)-4H-1,2,4-triazol-3-ylthio)acetic acid]
DYRK2	COc1cc(NC(=O)CSc2nncn2N)cc(OC)c1 [2-(4-amino-4H-1,2,4-triazol-3-ylthio)-N-(3,5-dimethoxyphenyl)acetamide]

Compound	Kinase
O=C(O)CSc1nnc(-c2cccnc2)n1Cc1ccco1 [2-(4-(furan-2-ylmethyl)-5-(pyridin-3-yl)-4H-1,2,4-triazol-3-ylthio)acetic acid]	DAPK1; also recorded: GSK3-β; also recorded: AURORA-A

Same assay, conditions: test compound 10 μM; active = activity greater than three-sigma from the mean of the predominately inactive population for that enzyme

protein kinase against which the compound exhibits inhibitory activity (Table 3)	Compound
INSR and PDGFRR-α and CHEK1	CCn1c(COc2ccc(Cl)cc2)nnc1SCCN1CCCCC1
AURORA-A	Cn1c(CCc2nc3ccccc3[nH]2)nnc1SCCN1CCCCC1
KIT	COCCNC(=O)CSc1nnc(-c2ccccc2O)n1-c1ccccc1OC
MAPKAPK-2	CCn1c(CNc2ccccc2Cl)nnc1SCCN1CCCCC1
CHEK2	COCCn1c(SCCN2CCOCC2)nnc1-c1cc2ccccc2cc1O
AURORA-A	COc1ccccc1-n1c(SCCN2CCCCC2)nnc1-c1cccnc1
GSK3-α	c1cncc(-c2nnc(SCCN3CCCCC3)[nH]2)c1
AURORA-A	FC(F)(F)c1cccc(-c2nnc(SCC3CCCO3)[nH]2)c1 (stereo not shown)
GSK3-α; also recorded: CHEK2	Cc1nn(-c2ccccc2)c2sc(-c3nnc(SCCN4CCCCC4)n3C)cc12
CDK2-cyclinE	COc1ccc(-n2c(COc3ccc4ccccc4c3)nnc2SCCN2CCOCC2)cc1
AURORA-A	Cc1cc(OCc2nnc(SCCN3CCOCC3)n2Cc2ccccc2)ccc1Cl
GSK3-α; also recorded: GSK3-β	COc1ccc(-n2c(SCCN3CCOCC3)nnc2-c2ccc(O)cc2)cc1
c-TAK1	CCn1c(SCc2ccc(-c3csnn3)cc2)nnc1-c1cc(-c2ccccc2)nc2ccccc12
GSK3-α	Oc1ccc(-c2nnc(SCCN3CCCCC3)n2Cc2ccco2)cc1
c-TAK1	FC(F)Oc1ccccc1CSc1nnc(-c2cc(-c3ccccc3)nc3ccccc23)n1Cc1ccco1
CHEK2	CCOc1ccc2nc(-c3ccc(OC)cc3)cc(-c3nnc(SCc4ccc(F)cc4F)n3C)c2c1
FYN	CCOc1ccc(NCc2nnc(SCCN3CCOCC3)n2-c2ccc(OC)cc2)cc1
PDGFRR-α and FYN	CCOc1ccc(NCc2nnc(SCCN3CCCCC3)n2-c2ccccc2)cc1
FYN and PDGFRR-α	CCOc1ccc(NCc2nnc(SCCN3CCCCC3)n2-c2ccc(C)cc2)cc1

protein kinase against which the compound exhibits inhibitory activity (Table 3)	Compound
FYN	CCOc1ccc(NCc2nnc(SCCN3CCOCC3)n2-c2ccc(C)cc2)cc1
FYN	CCOc1ccc(NCc2nnc(SCCN3CCOCC3)n2-c2ccccc2)cc1
PDGFRR-α	Cn1c(CNc2ccc(F)cc2)nnc1SCCN1CCOCC1
CDK2-cyclinA	Fc1ccc(NCc2nnc(SCCN3CCOCC3)n2-c2ccccc2)cc1
FYN and PDGFRR-α and FLT-3	COc1ccc(NCc2nnc(SCCN3CCCCC3)n2-c2ccccc2OC)cc1
FYN	COc1ccc(NCc2nnc(SCCN3CCCCC3)n2-c2ccc(OC)cc2)cc1
FYN and PDGFRR-α	COc1ccc(NCc2nnc(SCCN3CCCCC3)n2C)cc1
AURORA-A	CCOc1ccc2nc(-c3ccc(OC)cc3)cc(-c3nnc(SCc4ccc(F)cc4C(F)(F)F)n3C)c2c1
ROCK2	COc1ccccc1-n1c(SC(C)C(=O)Nc2cccc(NC(=O)c3ccco3)c2)nnc1-c1cccc(Cl)c1 (stereo not shown)
FYN and FLT-3 and PDGFRR-α	CCOc1ccc(NCc2nnc(SCCN3CCOCC3)n2-c2cccc(Cl)c2)cc1
FYN and PDGFRR-α and FLT-3	COc1ccc(NCc2nnc(SCCN3CCCCC3)n2-c2cccc(Cl)c2)cc1
PDGFRR-α and FYN and FLT-3	COc1ccc(NCc2nnc(SCCCC3CCCCC3)n2C)cc1
FLT-3; also recorded: GSK3-β	CCOC(=O)c1ccc(CSc2nnc(-c3ccc(OC(F)(F)F)cc3)[nH]2)o1
AURORA-A	OC(CSc1nnc(-c2cccnc2)[nH]1)C(F)(F)F (stereo not shown) [1,1,1-trifluoro-3-(5-(pyridin-3-yl)-4H-1,2,4-triazol-3-ylthio)propan-2-ol]
AURORA-A; also recorded: DYRK2	OC(CSc1nnc(-c2cccs2)[nH]1)C(F)(F)F (stereo not shown) [1,1,1-trifluoro-3-(5-(thiophen-2-yl)-4H-1,2,4-triazol-3-ylthio)propan-2-ol]
CDK1	COc1ccccc1-c1nnc(SCCSc2nnc(-c3ccccc3OC)n2-c2ccc(C)cc2)n1-c1ccc(C)cc1 [1,2-bis(5-(2-methoxyphenyl)-4-p-tolyl-4H-1,2,4-triazol-3-ylthio)ethane]
CHEK2	CCn1c(SCCSc2nnc(C3CCCCC3)n2CC)nnc1C1CCCCC1 [1,2-bis(5-cyclohexyl-4-ethyl-4H-1,2,4-triazol-3-ylthio)ethane]
PDGFRR-α	CCn1c(SCCN2CCCCC2)nnc1-c1ccc([N+](=O)[O-])cc1 [1-(2-(4-ethyl-5-(4-nitrophenyl)-4H-1,2,4-triazol-3-ylthio)ethyl)piperidine]
GSK3-α	O=C1c2ccccc2C(=O)N1CCSc1nnc(-c2ccc([N+](=O)[O-])cc2)[nH]1 [2-(2-(5-(4-nitrophenyl)-4H-1,2,4-triazol-3-ylthio)ethyl)isoindoline-1,3-dione]

Compound	protein kinase against which the compound exhibits inhibitory activity (Table 3)
N#Cc1cccc(CSc2nnc(-c3cccs3)[nH]2)c1	AURORA-A; also recorded: GSK3-β; also recorded: GSK3-α
Cc1nn(-c2ccccc2)c2sc(-c3nnc(SCCN4CCOCC4)n3C)cc12	GSK3-α; also recorded: GSK3-β; also recorded: DAPK1
COc1ccc(-c2nnc(SCCN3CCCCC3)[nH]2)cc1 [1-(2-(5-(4-methoxyphenyl)-4H-1,2,4-triazol-3-ylthio)ethyl)piperidine]	GSK3-α; also recorded: DYRK2; also recorded: GSK3-β
O=C1c2ccccc2C(=O)N1CCSc1nnc(-c2cccs2)[nH]1 [2-(2-(5-(thiophen-2-yl)-4H-1,2,4-triazol-3-ylthio)ethyl)isoindoline-1,3-dione]	AURORA-A; also recorded: GSK3-α; also recorded: DYRK2
O=C1c2ccccc2C(=O)N1CCSc1nnc(-c2ccccc2)[nH]1 [2-(2-(5-phenyl-4H-1,2,4-triazol-3-ylthio)ethyl)isoindoline-1,3-dione]	AURORA-A; also recorded: GSK3-β; also recorded: GSK3-α
